Data from patent US20020039780A1, “Salicyclic acid inducible genes and promoters” (priority 1998, published 2002).

How the values were obtained:
IEGT-Luc2 lines = assay: Promoter-luciferase reporter activity in leaves of transgenic tobacco; format: cell-based; details: leaf halves infiltrated with 1 mM SA or water for 4-12 hours; all ten lines
Method: (§1) FIG. 8. A. Schematic representation of the set-up of the experiment investigating SA-inducible gene expression in plants carrying a promoter-luciferase reporter construct. Parts of the leaves of transgenic plants are harvested, split and one half treated by infiltration by SA. The other half is treated with water. Then both halves are sprayed with luciferin solution and tested for luminescence. B. Results of the experiment using leaves of tobacco transgenic for the IEGT/G1-1 promoter-luciferase reporter construct. On the picture, the lefthand side of the leave was infiltrated with SA, the right hand side infiltrated with water. Increased luminescence is indicated by the lighter colors.
(§2) Amplified fragments were digested with BamHI and HindIII and subcloned into BamHI and HindIII-digested vector VIP11•-FFLuc (Anderson et al., 1994, Plant J. 4, 457-470) containing the firefly luciferase gene. This vector positions the promoter sequences directly upstream the promoterless FFLuc gene. […]
(§3) Leaves of primary transformants or S1 progeny were tested for reporter gene activity by excising halves of the leaves, splitting and infiltration with either water or 1 mM SA for 4-12 hours. Leaves were then sprayed with the reporter substrate luciferin (1 mM luciferin with 0.1% Triton X-100 in water) and the luminescence counted by video-imaging and quantitation equipment (schematically shown in FIG. 8A).

IEGT-Luc1 lines = assay: as above; format: cell-based; details: leaf halves infiltrated with 1 mM SA for 4-12 hours; six out of ten lines
Method: as §1, §2, §3

luciferase activity (IEGT-Luc2 lines): only baseline activity
SMILES: O=C(O)c1ccccc1O [SA, salicylic acid]
SA-induced luciferase expression over controls (IEGT-Luc1 lines): 2.3-6 fold
